Data: patent US20220313620A1, “COMPOSITION FOR PREVENTING AND TREATING TAUOPATHIES” (SERVICIO ANDALUZ DE SALUD, priority 2019, published 2022)

System: Pyruvate Kinase Liver/RBC (Pklr)
Experiment: Liver pyruvate kinase gene expression (qPCR) after acute oral gavage
Type: in vivo
Conditions: oral 100 mg/kg, adult male Wistar rats, FIG. 2D
Method: After 18 hours of fasting, D-Pinitol dissolved in water was administered acutely by gavage (100 mg/kg in a first study, and 500 mg/kg in a subsequent study). After administration, the animals were sacrificed in groups at different times (being time 0 the administration of D-Pinitol). For the first study (100 mg/kg), groups of animals were sacrificed at times: 10, 20, 30, 60, 120, 240 and 360 minutes after administration; for the second study (500 mg/kg), animals were sacrificed at times: 60, 120 and 240 minutes after administration. As a control group, a group was administered only with water (by gavage). […]
Total RNA was extracted from tissue portions of liver (100-300 mg) using the Trizol® method according to the manufacturer's instructions (GIBCO BRL Life Technologies). […] Total RNA was quantified using a spectrophotometer (Nanodrop 1000 Spectrophotometer, Thermo Scientific) to ensure A260/280 ratios of 1.8 to 2.0. […]
Real-time qPCR was performed following the criteria of the MIQE guidelines (Bustin, S. A. et al. The MIQE guidelines: minimum information for publication of quantitative real-time PCR experiments. Clin Chem. 55,611-622 (2009)). […] For all reference and target gene studies, two independent biologic samples of each experimental condition were evaluated in technical duplicates. […]

With `COC1[C@@H](O)[C@@H](O)C(O)[C@H](O)[C@H]1O` (stereo partly drawn) [DPIN, (1S,2S,4S,5R)-6-methoxycyclohexane-1,2,3,4,5-pentol] the “expression of Pyruvate Kinase” value was “Inhibition”.
